From US11739098B2 (BRISTOL-MYERS SQUIBB COMPANY, priority 2017, dated 2023)

Tests used:
Format in all cases: cell-based
human TLR7 = molecular target: T1, human TLR7 (Homo sapiens, UniProt Q9NYK1); assay: TLR7 inhibition reporter assay (HEK-Blue cells, SEAP reporter, gardiquimod stimulation); settings: HEK-Blue cells overexpressing human TLR7, SEAP reporter, gardiquimod 7.5 μM
T1 construct: host or cells: HEK-Blue cells (HEK293-derived reporter line)
T1 sequence (Q9NYK1 27-1049): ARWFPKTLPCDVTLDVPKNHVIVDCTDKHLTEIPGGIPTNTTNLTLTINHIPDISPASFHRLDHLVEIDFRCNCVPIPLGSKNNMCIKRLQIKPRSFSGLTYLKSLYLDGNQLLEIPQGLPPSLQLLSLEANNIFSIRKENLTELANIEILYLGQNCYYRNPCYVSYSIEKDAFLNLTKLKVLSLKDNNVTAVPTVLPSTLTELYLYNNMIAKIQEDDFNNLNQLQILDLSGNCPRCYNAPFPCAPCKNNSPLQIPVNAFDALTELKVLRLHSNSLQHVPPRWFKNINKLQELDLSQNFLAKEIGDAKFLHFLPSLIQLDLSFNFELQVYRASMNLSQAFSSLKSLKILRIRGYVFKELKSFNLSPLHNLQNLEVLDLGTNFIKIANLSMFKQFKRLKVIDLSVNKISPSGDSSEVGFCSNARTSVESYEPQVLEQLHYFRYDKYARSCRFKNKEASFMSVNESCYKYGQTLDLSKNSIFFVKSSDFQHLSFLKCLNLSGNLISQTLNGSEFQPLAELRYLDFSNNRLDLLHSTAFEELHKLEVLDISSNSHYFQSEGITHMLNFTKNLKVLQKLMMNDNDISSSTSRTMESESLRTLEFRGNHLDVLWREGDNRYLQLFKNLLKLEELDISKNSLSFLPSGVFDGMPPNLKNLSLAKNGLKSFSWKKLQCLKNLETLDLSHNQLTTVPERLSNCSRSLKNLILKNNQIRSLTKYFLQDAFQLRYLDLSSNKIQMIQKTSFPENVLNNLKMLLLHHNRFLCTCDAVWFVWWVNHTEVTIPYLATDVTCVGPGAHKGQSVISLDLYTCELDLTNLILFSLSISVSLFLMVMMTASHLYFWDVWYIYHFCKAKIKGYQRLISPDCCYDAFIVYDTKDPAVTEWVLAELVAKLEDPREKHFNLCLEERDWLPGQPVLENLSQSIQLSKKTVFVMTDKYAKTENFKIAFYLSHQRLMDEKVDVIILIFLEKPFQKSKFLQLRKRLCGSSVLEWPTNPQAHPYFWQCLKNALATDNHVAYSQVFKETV
Procedure, shortened: (§1)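 After 22 h at 37 °C, SEAP secretion was measured from human TLR7-, TLR8- or TLR9-expressing HEK-Blue reporter cells given compound (0.05 nM–50 μM) 30 min before agonist: 7.5 μM gardiquimod, 15.9 μM R848 or 5 nM ODN2006 respectively. Percent inhibition referenced to agonist-plus-DMSO and known-inhibitor wells.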

human TLR8 = molecular target: T2, human TLR8 (Homo sapiens, UniProt Q9NR97); assay: TLR8 inhibition reporter assay (HEK-Blue cells, SEAP reporter, R848 stimulation); settings: HEK-Blue cells overexpressing human TLR8, SEAP reporter, R848 15.9 μM
T2 construct: host or cells: HEK-Blue cells (HEK293-derived reporter line)
T2 sequence (Q9NR97 27-1041): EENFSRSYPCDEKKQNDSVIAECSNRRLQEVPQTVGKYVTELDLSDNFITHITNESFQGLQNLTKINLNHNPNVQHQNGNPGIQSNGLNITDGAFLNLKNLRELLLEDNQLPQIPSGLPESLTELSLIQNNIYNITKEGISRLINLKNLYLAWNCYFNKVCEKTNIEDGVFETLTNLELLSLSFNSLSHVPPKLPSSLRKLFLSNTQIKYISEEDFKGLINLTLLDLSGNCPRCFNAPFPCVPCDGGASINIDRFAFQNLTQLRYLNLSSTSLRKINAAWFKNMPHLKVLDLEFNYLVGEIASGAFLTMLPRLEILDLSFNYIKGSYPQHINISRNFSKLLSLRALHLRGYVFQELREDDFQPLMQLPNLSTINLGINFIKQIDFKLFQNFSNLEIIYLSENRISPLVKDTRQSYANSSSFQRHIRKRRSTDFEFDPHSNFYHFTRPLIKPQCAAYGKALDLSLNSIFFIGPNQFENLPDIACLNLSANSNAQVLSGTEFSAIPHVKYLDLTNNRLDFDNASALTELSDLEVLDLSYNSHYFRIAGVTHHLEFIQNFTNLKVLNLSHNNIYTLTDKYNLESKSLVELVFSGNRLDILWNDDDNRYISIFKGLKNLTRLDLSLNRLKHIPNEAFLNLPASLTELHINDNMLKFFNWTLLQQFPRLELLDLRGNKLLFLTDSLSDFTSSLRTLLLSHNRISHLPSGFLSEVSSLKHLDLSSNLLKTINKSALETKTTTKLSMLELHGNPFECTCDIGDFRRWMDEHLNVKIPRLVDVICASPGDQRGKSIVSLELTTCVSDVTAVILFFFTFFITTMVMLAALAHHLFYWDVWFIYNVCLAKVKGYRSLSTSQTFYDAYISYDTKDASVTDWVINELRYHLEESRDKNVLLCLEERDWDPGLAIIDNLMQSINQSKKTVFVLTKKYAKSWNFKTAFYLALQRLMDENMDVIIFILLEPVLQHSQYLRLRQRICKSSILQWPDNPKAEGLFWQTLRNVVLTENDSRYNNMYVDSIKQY
Procedure, shortened: as §1

human TLR9 = molecular target: T3, human TLR9 (Homo sapiens, UniProt Q9NR96); assay: TLR9 inhibition reporter assay (HEK-Blue cells, SEAP reporter, ODN2006 stimulation); settings: HEK-Blue cells overexpressing human TLR9, SEAP reporter, ODN2006 5 nM
T3 construct: host or cells: HEK-Blue cells (HEK293-derived reporter line)
T3 sequence (Q9NR96 26-1032): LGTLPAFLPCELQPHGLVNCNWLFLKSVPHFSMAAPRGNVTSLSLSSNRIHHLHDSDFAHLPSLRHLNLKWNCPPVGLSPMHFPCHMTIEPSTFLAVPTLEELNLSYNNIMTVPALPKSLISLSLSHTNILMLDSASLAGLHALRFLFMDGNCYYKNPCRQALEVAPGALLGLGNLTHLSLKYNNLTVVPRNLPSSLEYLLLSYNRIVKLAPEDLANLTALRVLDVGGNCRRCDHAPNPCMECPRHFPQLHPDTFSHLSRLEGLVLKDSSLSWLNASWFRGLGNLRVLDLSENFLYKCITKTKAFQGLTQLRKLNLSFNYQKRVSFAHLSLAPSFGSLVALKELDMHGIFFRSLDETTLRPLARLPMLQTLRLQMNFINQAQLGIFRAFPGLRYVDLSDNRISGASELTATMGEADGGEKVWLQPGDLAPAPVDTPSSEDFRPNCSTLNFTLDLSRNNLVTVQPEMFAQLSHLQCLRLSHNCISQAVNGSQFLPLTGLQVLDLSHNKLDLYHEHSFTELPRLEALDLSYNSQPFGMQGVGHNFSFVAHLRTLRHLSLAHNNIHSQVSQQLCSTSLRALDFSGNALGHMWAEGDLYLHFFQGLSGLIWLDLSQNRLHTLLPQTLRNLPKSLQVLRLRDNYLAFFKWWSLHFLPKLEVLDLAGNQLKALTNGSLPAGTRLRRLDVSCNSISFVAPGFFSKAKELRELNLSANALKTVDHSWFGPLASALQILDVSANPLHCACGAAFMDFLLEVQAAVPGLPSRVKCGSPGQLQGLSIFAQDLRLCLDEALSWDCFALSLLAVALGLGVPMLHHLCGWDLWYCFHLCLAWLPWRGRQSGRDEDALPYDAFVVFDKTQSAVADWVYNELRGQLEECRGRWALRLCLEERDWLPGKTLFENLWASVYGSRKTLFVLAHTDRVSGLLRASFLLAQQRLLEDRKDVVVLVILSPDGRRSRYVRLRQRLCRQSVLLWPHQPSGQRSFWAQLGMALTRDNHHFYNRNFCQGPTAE
Procedure, shortened: as §1

IC50 (human TLR7)	IC50 (human TLR8)	IC50 (human TLR9)	Structure (SMILES)
< 100 nM	< 100 nM	100 to 1000 nM	CCCN1CCC(c2ccc3[nH]c(-c4cc(C)c5ncn(C)c5c4)c(C(C)C)c3c2)CC1 [Example 954, 6-(3-isopropyl-5-(1-propylpiperidin-4-yl)-1H-indol-2-yl)-1,4-dimethyl-1H-benzo[d]imidazole]
< 100 nM	100 to 1000 nM	1000 to 50000 nM	CC(C)c1c(-c2ccn3nccc3c2)[nH]c2ccc(C3CCN(C(=O)CN(C)C)CC3)cc12 [Example 542, 2-(dimethylamino)-1-(4-(3-isopropyl-2-(pyrazolo[1,5-a]pyridin-5-yl)-1H-indol-5-yl)piperidin-1-yl)ethan-1-one]
< 100 nM	< 100 nM	100 to 1000 nM	CC(C)c1c(-c2ccc3nccn3c2)[nH]c2ccc(C3CCN(C(C)C)CC3)cc12 [Example 946, 6-(3-isopropyl-5-(1-isopropylpiperidin-4-yl)-1H-indol-2-yl)imidazo[1,2-a]pyridine]
< 100 nM	< 100 nM	< 100 nM	CCc1c(-c2cnc3cn[nH]c3c2)[nH]c2ccc(C3CCN(C4CCN(C(C)C)CC4)CC3)cc12 [Example 836, 6-(3-ethyl-5-(1′-isopropyl-[1,4′-bipiperidin]-4-yl)-1H-indol-2-yl)-1H-pyrazolo[4,3-b]pyridine]
< 100 nM	< 100 nM	100 to 1000 nM	CC(C)c1c(-c2ccnc3[nH]ncc23)[nH]c2ccc(C3CCN(CCN4CCCCCC4)CC3)cc12 [Example 660, 4-(5-(1-(2-(azepan-1-yl)ethyl)piperidin-4-yl)-3-isopropyl-1H-indol-2-yl)-1H-pyrazolo[3,4-b]pyridine]
< 100 nM	100 to 1000 nM	> 50000 nM	CNC(=O)CN1CCC(c2ccc3[nH]c(-c4ccc5c(cnn5C)c4C)c(C(C)C)c3c2)CC1 [Example 365, 2-(4-(2-(1,4-dimethyl-1H-indazol-5-yl)-3-isopropyl-1H-indol-5-yl)piperidin-1-yl)-N-methylacetamide]
1000 to 50000 nM	1000 to 50000 nM	1000 to 50000 nM	Cc1cc(-c2[nH]c3ccc(C4CCN(C5COC5)CC4)cc3c2C(C)C)cn2nncc12 [Example 737, 6-(3-isopropyl-5-(1-(oxetan-3-yl)piperidin-4-yl)-1H-indol-2-yl)-4-methyl-[1,2,3]triazolo[1,5-a]pyridine]
< 100 nM	< 100 nM	1000 to 50000 nM	CC(C)c1c(-c2cn(C)c3ncccc23)[nH]c2ccc(C3CCN(C(=O)CN(C)C)CC3)cc12 [Example 463, 2-(dimethylamino)-1-(4-(3-isopropyl-2-(1-methyl-1H-pyrrolo[2,3-b]pyridin-3-yl)-1H-indol-5-yl)piperidin-1-yl)ethan-1-one]
< 100 nM	100 to 1000 nM	100 to 1000 nM	CC(C)c1c(-c2ccn3cnnc3c2)[nH]c2ccc(C3CCN(C(=O)CN(C)C)CC3)cc12 [Example 466, 1-(4-(2-([1,2,4]triazolo[4,3-a]pyridin-7-yl)-3-isopropyl-1H-indol-5-yl)piperidin-1-yl)-2-(dimethylamino)ethan-1-one]

The remaining lines, values behind:

Structure (SMILES)	IC50 (human TLR7)	IC50 (human TLR8)	IC50 (human TLR9)
Cc1cc(-c2[nH]c3ccc(C4CCNCC4)cc3c2C(C)C)cc2[nH]c(=O)oc12 [Example 91, 5-(3-isopropyl-5-(piperidin-4-yl)-1H-indol-2-yl)-7-methylbenzo[d]oxazol-2(3H)-one]	100 to 1000 nM	100 to 1000 nM	100 to 1000 nM
CC(C)c1c(-c2cc(CO)c3nccn3c2)[nH]c2ccc(C3CCNCC3)cc12 [Example 124, (6-(3-isopropyl-5-(piperidin-4-yl)-1H-indol-2-yl)imidazo[1,2-a]pyridin-8-yl)methanol]	< 100 nM	< 100 nM	100 to 1000 nM
CC(C)c1c(-c2cnc3ncnn3c2)[nH]c2ccc(C3CCNCC3)cc12 [Example 170, 6-(3-isopropyl-5-(piperidin-4-yl)-1H-indol-2-yl)-[1,2,4]triazolo[1,5-a]pyrimidine]	< 100 nM	< 100 nM	100 to 1000 nM
CCc1c(-c2cc3ccccc3o2)[nH]c2ccc(C3CCNCC3)cc12 [Example 186, 2-(benzofuran-2-yl)-3-ethyl-5-(piperidin-4-yl)-1H-indole]	1000 to 50000 nM	1000 to 50000 nM	1000 to 50000 nM
Cc1ccnc2[nH]cc(-c3[nH]c4ccc(C5CCNCC5)cc4c3C(C)C)c12 [Example 36, 3-(3-isopropyl-5-(piperidin-4-yl)-1H-indol-2-yl)-4-methyl-1H-pyrrolo[2,3-b]pyridine]	< 100 nM	< 100 nM	100 to 1000 nM
Cc1cc(-c2[nH]c3ccc(C4CCNCC4)cc3c2C(C)C)cc2cn(C)nc12 [Example 138, 5-(3-isopropyl-5-(piperidin-4-yl)-1H-indol-2-yl)-2,7-dimethyl-2H-indazole]	< 100 nM	< 100 nM	1000 to 50000 nM
